In the supplement of paper PMC10307832:

How the values were obtained:
Assay in all cases: relative viability (nuclei count vs DMSO), 5 days (fraction); higher = more cells survive
NCI-H2087 = test system: NCI-H2087
Method in brief: (§1)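 One day after seeding in 1536-well plates, lung cancer cell lines were dosed by pin tool. Dosing was either single-drug or a fixed anchor-drug dose plus five library-drug doses (not always all listed) in √10 steps. After 5 days, nuclei were stained in one fix-and-stain step and counted on 4× images, and relative viability is the nuclei count of treated wells over that of vehicle wells, given as the median of duplicate plates.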

H3255 = test system: H3255
Method in brief: as §1

NCI-H322M = test system: NCI-H322M
Method in brief: as §1

PC-14 = test system: PC-14
Method in brief: as §1

PC-3 [JPC-3] = test system: PC-3 [JPC-3]
Method in brief: as §1

NCI-H1792 = test system: NCI-H1792
Method in brief: as §1

NCI-H1355 = test system: NCI-H1355
Method in brief: as §1

LK-2 = test system: LK-2
Method in brief: as §1

NCI-H2228 = test system: NCI-H2228
Method in brief: as §1

NCI-H1666 = test system: NCI-H1666
Method in brief: as §1

UMC-11 = test system: UMC-11
Method in brief: as §1

NCI-H838 = test system: NCI-H838
Method in brief: as §1

NCI-H661 = test system: NCI-H661
Method in brief: as §1

NCI-H1651 = test system: NCI-H1651
Method in brief: as §1

ABC-1 = test system: ABC-1
Method in brief: as §1

CAL-12T = test system: CAL-12T
Method in brief: as §1

A-427 = test system: A-427
Method in brief: as §1

NCI-H2085 = test system: NCI-H2085
Method in brief: as §1

NCI-H1395 = test system: NCI-H1395
Method in brief: as §1

NCI-H358 = test system: NCI-H358
Method in brief: as §1

SK-MES-1 = test system: SK-MES-1
Method in brief: as §1

NCI-H1915 = test system: NCI-H1915
Method in brief: as §1

LCLC-97TM1 = test system: LCLC-97TM1
Method in brief: as §1

## O=C(O)CCCCC(CCSCc1ccccc1)SCc1ccccc1 (configuration not stated) [CPI-613] + N=C(N)NC(=N)NCCc1ccccc1 [Phenformin] (partner 250 µM)
NCI-H2087; first compound 5 µM
  relative viability: 0.387
NCI-H2087; first compound 15.81 µM
  relative viability: 0.438
NCI-H2087; first compound 50 µM
  relative viability: 0.379
NCI-H2087; first compound 158.11 µM
  relative viability: 0.129
NCI-H2087; first compound 500 µM
  relative viability: 0.0066
H3255; first compound 5 µM
  relative viability: 0.351
H3255; first compound 15.81 µM
  relative viability: 0.299
H3255; first compound 50 µM
  relative viability: 0.399
H3255; first compound 500 µM
  relative viability: 0.299
NCI-H322M; first compound 5 µM
  relative viability: 0.76
NCI-H322M; first compound 15.81 µM
  relative viability: 0.718
NCI-H322M; first compound 50 µM
  relative viability: 0.728
NCI-H322M; first compound 158.11 µM
  relative viability: 0.693
NCI-H322M; first compound 500 µM
  relative viability: 0.0264
PC-14; first compound 5 µM
  relative viability: 0.463
PC-14; first compound 15.81 µM
  relative viability: 0.458
PC-14; first compound 50 µM
  relative viability: 0.567
PC-14; first compound 158.11 µM
  relative viability: 0.386
PC-14; first compound 500 µM
  relative viability: 0.207
PC-3 [JPC-3]; first compound 5 µM
  relative viability: 0.474
PC-3 [JPC-3]; first compound 15.81 µM
  relative viability: 0.495
PC-3 [JPC-3]; first compound 50 µM
  relative viability: 0.494
PC-3 [JPC-3]; first compound 158.11 µM
  relative viability: 0.465
PC-3 [JPC-3]; first compound 500 µM
  relative viability: 0.0769
NCI-H1792; first compound 5 µM
  relative viability: 0.332
NCI-H1792; first compound 50 µM
  relative viability: 0.236
NCI-H1792; first compound 158.11 µM
  relative viability: 0.205
NCI-H1792; first compound 500 µM
  relative viability: 0.0809
NCI-H1355; first compound 5 µM
  relative viability: 0.423
NCI-H1355; first compound 15.81 µM
  relative viability: 0.412
NCI-H1355; first compound 50 µM
  relative viability: 0.411
NCI-H1355; first compound 158.11 µM
  relative viability: 0.347
NCI-H1355; first compound 500 µM
  relative viability: 0.105
LK-2; first compound 5 µM
  relative viability: 0.379
LK-2; first compound 15.81 µM
  relative viability: 0.32
LK-2; first compound 50 µM
  relative viability: 0.517
LK-2; first compound 158.11 µM
  relative viability: 0.346
LK-2; first compound 500 µM
  relative viability: 0.0954
NCI-H2228; first compound 5 µM
  relative viability: 0.344
NCI-H2228; first compound 15.81 µM
  relative viability: 0.33
NCI-H2228; first compound 50 µM
  relative viability: 0.222
NCI-H2228; first compound 158.11 µM
  relative viability: 0.208
NCI-H2228; first compound 500 µM
  relative viability: 0.0339
NCI-H1666; first compound 5 µM
  relative viability: 0.56
NCI-H1666; first compound 15.81 µM
  relative viability: 0.539
NCI-H1666; first compound 50 µM
  relative viability: 0.534
NCI-H1666; first compound 158.11 µM
  relative viability: 0.26
NCI-H1666; first compound 500 µM
  relative viability: 0.251
UMC-11; first compound 5 µM
  relative viability: 0.274
UMC-11; first compound 15.81 µM
  relative viability: 0.297
UMC-11; first compound 50 µM
  relative viability: 0.289
UMC-11; first compound 158.11 µM
  relative viability: 0.124
UMC-11; first compound 500 µM
  relative viability: 0.117
NCI-H838; first compound 5 µM
  relative viability: 0.586
NCI-H838; first compound 15.81 µM
  relative viability: 0.481
NCI-H838; first compound 50 µM
  relative viability: 0.558
NCI-H838; first compound 158.11 µM
  relative viability: 0.261
NCI-H838; first compound 500 µM
  relative viability: 0.0688
NCI-H661; first compound 5 µM
  relative viability: 0.291
NCI-H661; first compound 15.81 µM
  relative viability: 0.235
NCI-H661; first compound 50 µM
  relative viability: 0.304
NCI-H661; first compound 158.11 µM
  relative viability: 0.214
NCI-H661; first compound 500 µM
  relative viability: 0.113
NCI-H1651; first compound 5 µM
  relative viability: 0.326
NCI-H1651; first compound 15.81 µM
  relative viability: 0.316
NCI-H1651; first compound 50 µM
  relative viability: 0.303
NCI-H1651; first compound 158.11 µM
  relative viability: 0.166
NCI-H1651; first compound 500 µM
  relative viability: 0.126
ABC-1; first compound 5 µM
  relative viability: 0.22
ABC-1; first compound 15.81 µM
  relative viability: 0.211
ABC-1; first compound 50 µM
  relative viability: 0.247
ABC-1; first compound 158.11 µM
  relative viability: 0.146
ABC-1; first compound 500 µM
  relative viability: 0.192
CAL-12T; first compound 5 µM
  relative viability: 0.538
CAL-12T; first compound 15.81 µM
  relative viability: 0.546
CAL-12T; first compound 50 µM
  relative viability: 0.464
CAL-12T; first compound 158.11 µM
  relative viability: 0.0459
CAL-12T; first compound 500 µM
  relative viability: 0.0085
A-427; first compound 5 µM
  relative viability: 0.279
A-427; first compound 15.81 µM
  relative viability: 0.255
A-427; first compound 50 µM
  relative viability: 0.267
A-427; first compound 158.11 µM
  relative viability: 0.178
A-427; first compound 500 µM
  relative viability: 0.1
NCI-H2085; first compound 5 µM
  relative viability: 0.814
NCI-H2085; first compound 15.81 µM
  relative viability: 0.62
NCI-H2085; first compound 50 µM
  relative viability: 0.701
NCI-H2085; first compound 158.11 µM
  relative viability: 0.295
NCI-H2085; first compound 500 µM
  relative viability: 0.0903
NCI-H1395; first compound 5 µM
  relative viability: 0.419
NCI-H1395; first compound 15.81 µM
  relative viability: 0.427
NCI-H1395; first compound 50 µM
  relative viability: 0.433
NCI-H1395; first compound 158.11 µM
  relative viability: 0.457
NCI-H1395; first compound 500 µM
  relative viability: 0.397
NCI-H358; first compound 15.81 µM
  relative viability: 0.297
NCI-H358; first compound 50 µM
  relative viability: 0.31
NCI-H358; first compound 158.11 µM
  relative viability: 0.172
NCI-H358; first compound 500 µM
  relative viability: 0.017
SK-MES-1; first compound 5 µM
  relative viability: 0.642
SK-MES-1; first compound 15.81 µM
  relative viability: 0.623
SK-MES-1; first compound 50 µM
  relative viability: 0.599
SK-MES-1; first compound 158.11 µM
  relative viability: 0.147
SK-MES-1; first compound 500 µM
  relative viability: 0.0887
NCI-H1915; first compound 5 µM
  relative viability: 0.374
NCI-H1915; first compound 15.81 µM
  relative viability: 0.372
NCI-H1915; first compound 50 µM
  relative viability: 0.354
NCI-H1915; first compound 158.11 µM
  relative viability: 0.339
NCI-H1915; first compound 500 µM
  relative viability: 0.0398
LCLC-97TM1; first compound 5 µM
  relative viability: 0.446
LCLC-97TM1; first compound 15.81 µM
  relative viability: 0.325
LCLC-97TM1; first compound 50 µM
  relative viability: 0.405
LCLC-97TM1; first compound 158.11 µM
  relative viability: 0.371
LCLC-97TM1; first compound 500 µM
  relative viability: 0.0437
